The values that follow are results of earlier work, collected in paper PMC4876928 (Clinical cancer research : an official journal of the …, 2016).

This series concerns malignant pleural mesothelioma. The conditions noted are these: MPM previously treated with chemotherapy, second-line; cited from earlier work.

On to `Nc1ccn([C@@H]2O[C@H](CO)[C@@H](O)C2(F)F)c(=O)n1` [gemcitabine], for which the response rate is 2%.

In the case of `CCC1=C[C@@H]2CN(C1)Cc1c([nH]c3ccccc13)[C@@](C(=O)OC)(c1cc3c(cc1OC)N(C)[C@H]1[C@@](O)(C(=O)OC)[C@H](OC(C)=O)[C@]4(CC)C=CCN5CC[C@]31[C@@H]54)C2` [vinorelbine], the response rate is given as 2%.
